The source of these data is patent US11667649B2, “Heteroaromatic macrocyclic ether chemotherapeutic agents” (Nuvalent, Inc., priority 2020, dated 2023).

Molecules are shown by their SMILES.

The assay relates to TPM3-NTRK1-wt IC50 / primary target (e.g. CD74-ROS1-wt) IC50, Ba/F3 cells. Description: Cell assay TRKA selectivity (TRKA potency divided by primary target potency). To be noted: for TPM3-NTRK1-wt/CD74-ROS1-G2032R: TRKA selectivity ratio: TPM3-NTRK1-wt IC50 / CD74-ROS1-G2032R IC50, Ba/F3 cells; for TPM3-NTRK1-wt/CD74-ROS1-wt: TRKA selectivity ratio: TPM3-NTRK1-wt IC50 / CD74-ROS1-wt IC50, Ba/F3 cells; for TPM3-NTRK1-wt/EML4-ALK-L1196M-G1202R: TRKA selectivity ratio: TPM3-NTRK1-wt IC50 / EML4-ALK-L1196M-G1202R IC50, Ba/F3 cells; for TPM3-NTRK1-wt/EML4-ALK-wt: TRKA selectivity ratio: TPM3-NTRK1-wt IC50 / EML4-ALK-wt IC50, Ba/F3 cells. Format: cell-based. A digest of the protocol:
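IL-3-independent Ba/F3 lines stably expressing TPM3-TRKA or the primary fusion (e.g. CD74-ROS1 wt) were exposed to 3-fold compound dilutions for 72 h. Viability was read by CellTiter-Glo luminescence, with IC50 from four-parameter logistic fit. Selectivity is TPM3-NTRK1 IC50 divided by primary-target IC50, binned A (>30-fold) to D (<1).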

Consider `CC1Oc2cc(cnc2N)-c2c(nn(C)c2C#N)Cc2cnccc2-c2ccc(F)cc21` (stereo not drawn) [Example 59, 23-amino-17-fluoro-4,20-dimethyl-21-oxa-4,5,10,24-tetraazapentacyclo[20.3.1.0^2,^6.0^8,^13.0^14,^19]hexacosa-1(25),2,5,8(13),9,11,14,16,18,22(26),23-undecaene-3-carbonitrile], for which the TPM3-NTRK1-wt/CD74-ROS1-G2032R entry is listed as “C (bin C for moderate selectivity, ratio≥1)”; the TPM3-NTRK1-wt/CD74-ROS1-wt entry is given as “A (bin A for very high selectivity, ratio>30-fold)”; the TPM3-NTRK1-wt/EML4-ALK-L1196M-G1202R entry is on record as “D (bin D for low selectivity, ratio<1)”.
Consider `Cc1cc2n(n1)-c1ccc(F)cc1[C@@H](C)Oc1cc(cnc1N)-c1c(C#N)ncn1C2` [Example 61, (19R)-22-amino-16-fluoro-10,19-dimethyl-20-oxa-4,6,11,12,23-pentaazapentacyclo[19.3.1.0^2,^6.0^8,^12.0^13,^18]pentacosa-1(24),2,4,8,10,13,15,17,21(25),22-decaene-3-carbonitrile], for which the TPM3-NTRK1-wt/CD74-ROS1-G2032R result is “A (bin A for very high selectivity, ratio>30-fold)”; the TPM3-NTRK1-wt/CD74-ROS1-wt entry is recorded as “A (bin A for very high selectivity, ratio>30-fold)”; the TPM3-NTRK1-wt/EML4-ALK-L1196M-G1202R entry is “B (bin B for high selectivity, ratio>10-fold)”; the TPM3-NTRK1-wt/EML4-ALK-wt result is on record as “A (bin A for very high selectivity, ratio>30-fold)”.
In the case of `C[C@H]1Oc2cc(cnc2N)-c2c(C#N)cnn2Cc2ccnn2-c2ccc(F)cc21` [Example 62, (19R)-22-amino-16-fluoro-19-methyl-20-oxa-5,6,11,12,23-pentaazapentacyclo[19.3.1.0^2,^6.0^8,^12.0^13,^18]pentacosa-1(24),2,4,8,10,13,15,17,21(25),22-decaene-3-carbonitrile], the TPM3-NTRK1-wt/CD74-ROS1-G2032R result was “B (bin B for high selectivity, ratio>10-fold)”; the TPM3-NTRK1-wt/CD74-ROS1-wt result was “A (bin A for very high selectivity, ratio>30-fold)”; the TPM3-NTRK1-wt/EML4-ALK-L1196M-G1202R result was “C (bin C for moderate selectivity, ratio≥1)”; the TPM3-NTRK1-wt/EML4-ALK-wt result was “A (bin A for very high selectivity, ratio>30-fold)”.
As for `C[C@H]1Oc2cc(cnc2N)-c2c(C#N)ncn2Cc2cc(F)cnc2-c2ccc(F)cc21` [Example 63, (20R)-23-amino-10,17-difluoro-20-methyl-21-oxa-4,6,12,24-tetraazapentacyclo[20.3.1.0^2,^6.0^8,^13.0^14,^19]hexacosa-1(25),2,4,8,10,12,14(19),15,17,22(26),23-undecaene-3-carbonitrile], the TPM3-NTRK1-wt/CD74-ROS1-G2032R entry is listed as “A (bin A for very high selectivity, ratio>30-fold)”; the TPM3-NTRK1-wt/CD74-ROS1-wt entry was “A (bin A for very high selectivity, ratio>30-fold)”; the TPM3-NTRK1-wt/EML4-ALK-L1196M-G1202R entry is listed as “B (bin B for high selectivity, ratio>10-fold)”; the TPM3-NTRK1-wt/EML4-ALK-wt result is listed as “A (bin A for very high selectivity, ratio>30-fold)”.
On to `C[C@H]1Oc2cc(cnc2N)-c2c(C#N)ncn2Cc2scnc2-c2ccc(F)cc21` [Example 64, (19R)-22-amino-16-fluoro-19-methyl-20-oxa-9-thia-4,6,11,23-tetraazapentacyclo[19.3.1.0^2,^6.0^8,^12.0^13,^18]pentacosa-1(24),2,4,8(12),10,13(18),14,16,21(25),22-decaene-3-carbonitrile], for which the TPM3-NTRK1-wt/CD74-ROS1-G2032R entry is given as “A (bin A for very high selectivity, ratio>30-fold)”; the TPM3-NTRK1-wt/CD74-ROS1-wt result is listed as “A (bin A for very high selectivity, ratio>30-fold)”; the TPM3-NTRK1-wt/EML4-ALK-L1196M-G1202R entry is recorded as “B (bin B for high selectivity, ratio>10-fold)”; the TPM3-NTRK1-wt/EML4-ALK-wt entry is “A (bin A for very high selectivity, ratio>30-fold)”.
For the compound `Cc1nc2c(s1)Cn1cnc(C#N)c1-c1cnc(N)c(c1)O[C@H](C)c1cc(F)ccc1-2` [Example 65, (19R)-22-amino-16-fluoro-10,19-dimethyl-20-oxa-9-thia-4,6,11,23-tetraazapentacyclo[19.3.1.0^2,^6.0^8,^12.0^13,^18]pentacosa-1(24),2,4,8(12),10,13(18),14,16,21(25),22-decaene-3-carbonitrile], the TPM3-NTRK1-wt/CD74-ROS1-G2032R result was “A (bin A for very high selectivity, ratio>30-fold)”; the TPM3-NTRK1-wt/CD74-ROS1-wt entry is recorded as “A (bin A for very high selectivity, ratio>30-fold)”; the TPM3-NTRK1-wt/EML4-ALK-L1196M-G1202R result is given as “B (bin B for high selectivity, ratio>10-fold)”; the TPM3-NTRK1-wt/EML4-ALK-wt entry is “A (bin A for very high selectivity, ratio>30-fold)”.
On to `Cc1nc2c(s1)Cn1ncc(C#N)c1-c1cnc(N)c(c1)O[C@H](C)c1cc(F)ccc1-2` [Example 67, (19R)-22-amino-16-fluoro-10,19-dimethyl-20-oxa-9-thia-5,6,11,23-tetraazapentacyclo[19.3.1.0^2,^6.0^8,^12.0^13,^18]pentacosa-1(24),2,4,8(12),10,13,15,17,21(25),22-decaene-3-carbonitrile], for which the TPM3-NTRK1-wt/CD74-ROS1-G2032R entry is recorded as “A (bin A for very high selectivity, ratio>30-fold)”; the TPM3-NTRK1-wt/CD74-ROS1-wt result is listed as “A (bin A for very high selectivity, ratio>30-fold)”; the TPM3-NTRK1-wt/EML4-ALK-L1196M-G1202R entry is recorded as “C (bin C for moderate selectivity, ratio≥1)”; the TPM3-NTRK1-wt/EML4-ALK-wt entry is given as “A (bin A for very high selectivity, ratio>30-fold)”.
For the compound `Cc1nc2c(s1)Cn1ncc(C(F)F)c1-c1cnc(N)c(c1)O[C@H](C)c1cc(F)ccc1-2` [Example 68, (19R)-3-(difluoromethyl)-16-fluoro-10,19-dimethyl-20-oxa-9-thia-5,6,11,23-tetraazapentacyclo[19.3.1.0^2,^6.0^8,^12.0^13,^18]pentacosa-1(24),2,4,8(12),10,13,15,17,21(25),22-decaen-22-amine], the TPM3-NTRK1-wt/CD74-ROS1-G2032R entry is listed as “B (bin B for high selectivity, ratio>10-fold)”; the TPM3-NTRK1-wt/CD74-ROS1-wt entry was “A (bin A for very high selectivity, ratio>30-fold)”; the TPM3-NTRK1-wt/EML4-ALK-L1196M-G1202R result is recorded as “C (bin C for moderate selectivity, ratio≥1)”; the TPM3-NTRK1-wt/EML4-ALK-wt result is given as “B (bin B for high selectivity, ratio>10-fold)”.
In the case of `CCn1ncc2c1-c1cnc(N)c(c1)OCc1cc(F)ccc1-n1nc(C)cc1C2` [Example 69, 3-ethyl-16-fluoro-10-methyl-20-oxa-3,4,11,12,23-pentaazapentacyclo[19.3.1.0^2,^6.0^8,^12.0^13,^18]pentacosa-1(24),2(6),4,8,10,13,15,17,21(25),22-decaen-22-amine], the TPM3-NTRK1-wt/CD74-ROS1-G2032R result is given as “A (bin A for very high selectivity, ratio>30-fold)”; the TPM3-NTRK1-wt/CD74-ROS1-wt result is reported as “A (bin A for very high selectivity, ratio>30-fold)”; the TPM3-NTRK1-wt/EML4-ALK-L1196M-G1202R entry is given as “B (bin B for high selectivity, ratio>10-fold)”; the TPM3-NTRK1-wt/EML4-ALK-wt result is listed as “A (bin A for very high selectivity, ratio>30-fold)”.
With `CCn1nnc2c1-c1cnc(N)c(c1)O[C@H](C)c1cc(F)ccc1-c1ncc(F)cc1C2` [Example 70, (20R)-3-ethyl-10,17-difluoro-20-methyl-21-oxa-3,4,5,12,24-pentaazapentacyclo[20.3.1.0^2,^6.0^8,^13.0^14,^19]hexacosa-1(25),2(6),4,8(13),9,11,14,16,18,22(26),23-undecaen-23-amine], the TPM3-NTRK1-wt/CD74-ROS1-G2032R result is reported as “A (bin A for very high selectivity, ratio>30-fold)”; the TPM3-NTRK1-wt/CD74-ROS1-wt entry is given as “A (bin A for very high selectivity, ratio>30-fold)”; the TPM3-NTRK1-wt/EML4-ALK-L1196M-G1202R result is “C (bin C for moderate selectivity, ratio≥1)”; the TPM3-NTRK1-wt/EML4-ALK-wt entry was “A (bin A for very high selectivity, ratio>30-fold)”.
Regarding `CCn1ncc2c1-c1cnc(N)c(c1)O[C@H](C)c1cc(F)ccc1-n1nc(F)cc1C2` [Example 71, (19R)-3-ethyl-10,16-difluoro-19-methyl-20-oxa-3,4,11,12,23-pentaazapentacyclo[19.3.1.0^2,^6.0^8,^12.0^13,^18]pentacosa-1(24),2(6),4,8,10,13,15,17,21(25),22-decaen-22-amine], the TPM3-NTRK1-wt/CD74-ROS1-G2032R result is given as “A (bin A for very high selectivity, ratio>30-fold)”; the TPM3-NTRK1-wt/CD74-ROS1-wt result is “B (bin B for high selectivity, ratio>10-fold)”; the TPM3-NTRK1-wt/EML4-ALK-L1196M-G1202R result is given as “C (bin C for moderate selectivity, ratio≥1)”; the TPM3-NTRK1-wt/EML4-ALK-wt entry is “B (bin B for high selectivity, ratio>10-fold)”.
With `Cc1nc2c(s1)Cc1cnn(C(F)F)c1-c1cnc(N)c(c1)O[C@H](C)c1cc(F)ccc1-2` [Example 72, (19R)-3-(difluoromethyl)-16-fluoro-10,19-dimethyl-20-oxa-9-thia-3,4,11,23-tetraazapentacyclo[19.3.1.0^2,^6.0^8,^12.0^13,^18]pentacosa-1(24),2(6),4,8(12),10,13,15,17,21(25),22-decaen-22-amine], the TPM3-NTRK1-wt/CD74-ROS1-G2032R entry was “A (bin A for very high selectivity, ratio>30-fold)”; the TPM3-NTRK1-wt/CD74-ROS1-wt result is on record as “A (bin A for very high selectivity, ratio>30-fold)”; the TPM3-NTRK1-wt/EML4-ALK-L1196M-G1202R result is reported as “C (bin C for moderate selectivity, ratio≥1)”; the TPM3-NTRK1-wt/EML4-ALK-wt entry is “A (bin A for very high selectivity, ratio>30-fold)”.
For `CCn1nc(Cl)c2c1-c1cnc(N)c(c1)O[C@H](C)c1cc(F)ccc1-c1nn(C)cc1C2` [Example 73, (19R)-5-chloro-3-ethyl-16-fluoro-10,19-dimethyl-20-oxa-3,4,10,11,23-pentaazapentacyclo[19.3.1.0^2,^6.0^8,^12.0^13,^18]pentacosa-1(24),2(6),4,8,11,13,15,17,21(25),22-decaen-22-amine], the TPM3-NTRK1-wt/CD74-ROS1-G2032R entry is listed as “A (bin A for very high selectivity, ratio>30-fold)”; the TPM3-NTRK1-wt/CD74-ROS1-wt result was “A (bin A for very high selectivity, ratio>30-fold)”; the TPM3-NTRK1-wt/EML4-ALK-L1196M-G1202R entry is “B (bin B for high selectivity, ratio>10-fold)”; the TPM3-NTRK1-wt/EML4-ALK-wt entry was “A (bin A for very high selectivity, ratio>30-fold)”.
